Patent US7435555B2, “Asparagine hydroxylation of the CAD domain of a HIF protein” (Adelaide Research and Innovation Pty Ltd., priority 2001, dated 2008)

Experiments:
Type in all cases: cell-based, human
[1] = system: Gal4DBD/HIF-1α 727-826 CAD chimera; assay: Gal4 response element luciferase reporter gene assay, GalDBD/HIF-1α CAD chimera; settings: cells treated 16 h at normoxia
[2] = system: Gal4DBD/HIF-2α 774-874 CAD chimera; assay: Gal4 response element luciferase reporter gene assay, GalDBD/HIF-2α CAD chimera; settings: cells treated 16 h at normoxia
From the text: FIG. 3. Expression vectors for either the Gal4 DNA Binding Domain or the indicated GalDBD HIF-1α and HIF-2α CAD chimeric proteins were contransfected with a Gal4 response element containing luciferase reporter gene and an internal control renilla luciferase reporter gene. […] Data are the average of three transfections±standard deviation.
FIG. 6. […] A) Sequence comparisons show conservation of the critical Asn between HIF-1α and HIF-2α across species. […] HEK293T cells were transfected according to the protocol of FIG. 3A and data represent the average of triplicate transfections +/standard deviation. (C). The wild type and mutant Ga14DBD/HIF chimeras used in A) are expressed at the same levels during transient transfection. Whole cell extracts of control or transfected cells were separated by SDS-PAGE and proteins detected by immunoblotting with antibodies directed against the C-terminus of HIF-1α (C) or HIF2α.
Human embryonic kidney 293T and rat pheochromocytoma PC12 cells were maintained in Dulbecco's Modified Eagles Medium (DMEM) supplemented with 10% foetal calf serum. For transient transfections, cells were plated onto 24 well plates at a density of 2.0×10^4 cells/well. […] After 16 hrs treatment, cells were harvested, Iysed and extracts analysed using the Dual Luciferase Reporter Assay Kit as outlined by the manufacturer (Promega). […]

[3] = system: HIF-2α CAD Asn851 hydroxylation; assay: Mass spectrometry of HIF-2α CAD purified from stable 293T cells (hydroxylation of Asn851); settings: DP 100 μM, 3 h; MALDI-TOF
Procedure: FIG. 5. A) Mass spectrometry of the HIF-2α CAD purified from cells incubated in normoxia or subjected to hypoxia (<1% O2, 3 h) or DP (100 μM, 3 h) treatments. A & B) Magnified views of the MALDI-TOF spectra corresponding to hydroxylation (+16 Da) of the peptide […] [SED ID NO. 1], which appears in the normoxic but not hypoxic or DP treated samples. […] Fragments were also observed for the modified sequence at m/z values of +16 Da higher than Asn851-containing fragments of the unmodified sequence. The boundary of the coincident and +16 Da fragment ions is indicated by the symbol N+ on the fragment ion spectrum of the modified sequence.
Samples for MS analysis were isolated from a 293T stable cell line that expressed HIF-2α774-874. After normoxic culture or treatment with hypoxia or DP as specified, cells were washed once with PBS, then lysed with binding buffer (100 mM Na-Phosphate pH8.0, 8M Urea, 0.1% NP40, 0.15M NaCl2, 5 mM imidazole, 1 mM βMe, 0.05 mM Na3VO4, 0.1 mM NaF, 0.5 mM β-Glycerophosphate, protease inhibitors). […]
Tryptic digests were analyzed using a Bruker Reflex MALDI-TOF-MS operated in the positive ion reflector mode. MALDI-TOF-MS data were acquired and analyzed using the Bruker XMass suite of software (Lopaticki et al., 1998; Pitt et al., 2000; Gorman et al., 1997). […]

HIF-2α CAD = assay: Immunoblot of HIF-2α CAD protein expression in stable transfected HEK 293T cells; settings: treatment 3 h, anti-myc immunoblot
From the text: FIG. 4. A) Schematic showing domains of HIF-2α and the construct containing the CAD region fused to a 6xHis tag/myc epitope which was used to generate a stable expressing cell line. B) Protein expression of the HIF-2α CAD is not increased by hypoxia or DP treatment. […] The 293T control lane contains extract from cells stably transfected with blank expression vector. C) Sypro-Ruby (Bio-Rad) stained SDSPAGE gel showing an example of HIF-2α CAD purified from stable transfected cells. Extracts from non transfected cells subjected to the same purification procedure lack the HIF-2α CAD band.The higher molecular weight contaminant that is co-purified by the procedure was identified as 60S ribosomal protein L27A by mass spectrometry.
Isolated cell pellets were lysed in whole cell extract (WCE) buffer (10 mM Tris pH7.9, 0.42M NaCl2, 0.5% NP40, 25% Glycerol, 0.2 mM EDTA, 1.5 mM MgCl2, 1 mM DTT, protease inhibitors) for 10 min at 4° C. Lysed extracts were then clarified by centrifugation at 12,000 g for 15 min. The protein concentration of clarified lysates was determined using the Bradford assay (Biorad). Protein samples were then resolved on 12.5% Tris-Tricine gels. For the HIF-2α774-874 stable line, 10 μg of WCE was analysed by immunoblotting with the anti-myc 9E10 monoclonal antibody. […]

Structure (SMILES) | activity of the Gal4DBD/HIF-1α CAD chimera on treatment of cells [1] | activity of the Gal4DBD/HIF-2α CAD chimera on treatment of cells [2] | +16 Da (hydroxylated) form of peptide 846-YDCEVNVPVPGSSTLLQGR-864 [3] | protein expression of the HIF-2α CAD (HIF-2α CAD)
COC(=O)CNC(=O)C(=O)OC [DMOG, dimethyl-oxalylglycine] | activation of the Gal4DBD/HIF-1α and Gal4DBD/HIF-2α CAD chimeras to a similar extent as that seen during treatment with hypoxia | activation of the Gal4DBD/HIF-1α and Gal4DBD/HIF-2α CAD chimeras to a similar extent as that seen during treatment with hypoxia | – | –
c1ccc(-c2ccccn2)nc1 [DP, 2,2′-dipyridyl] | – | induces activity of the CADs | complete lack of the +16 mass increase | not increased
